Reference: patent US20260035385A1, “BENZO NITROGEN-CONTAINING HETEROAROMATIC RING DERIVATIVE AND USE THEREOF IN MEDICINE” (Xizang Haisco Pharmaceutical Co., Ltd., priority 2021, published 2026)
Counter-ions that a name gives are not always drawn.

Columns and labels:
[1] = tested on: complement alternative pathway; assay: Biological Test Example 2: complement alternative pathway inhibition, IBL alternative pathway kit, serum from healthy volunteers; assay type: biochemical, human; details: LPS-coated plate, 37 °C 1 h, read-out: IC50 for inhibiting alternative pathway
Method: The inhibitory effect of the compounds on the complement alternative pathway was detected using the IBL alternative pathway kit (COMPL AP330 RUO). Serum from healthy volunteers was collected and 1 portion was diluted with a buffer of 20 mM EDTA in gelatin (0.15 mM CaCl2, 141 mM NaCl, 4.5 mM MgCl2, 4.2 mM HEPES, and 0.1% gelatin at pH 7.4) to 50% (v/v), and 1 portion was diluted to 50% (v/v) with a buffer of 20 mM EGTA in gelatin. The compounds were prepared in DMSO to a working solution 100 times the final concentration. Before use, 50% of the above serum was diluted 1/18 with the AP diluent in the kit. 1 part of the compound working solution (v/v) or DMSO (positive control PC) was added to 99 parts of the diluted serum containing EGTA for pretreatment for 30 min, and 1 part of DMSO (v/v) was added to 99 parts of the diluted serum containing EDTA, as negative control (NC). The serum pretreated with the above compounds (or DMSO) was added at […] to the LPS-coated 96-well plate, incubated at 37° C. for 1 h, and the plate was washed 3 times with washing solution in the kit; the conjugated chromogenic substrate was added according to the instruction in the kit, and the absorbance was read at 405 nm with a microplate reader. The inhibitory activity of the compounds on alternative pathway was calculated using the following formula.
OD^CPD was the OD value when the inhibitor was added, OD^NC was the OD value of the negative control, and OD^PC was the OD value of the positive control.
Graphpad was used to perform nonlinear regression on the final concentrations and inhibition rates of the compounds to obtain the IC50 of the compounds for inhibiting the alternative pathway.

FB = FB (Homo sapiens, UniProt P00751); assay: biochemical
FB, sequence (P00751 260-764 limits assumed): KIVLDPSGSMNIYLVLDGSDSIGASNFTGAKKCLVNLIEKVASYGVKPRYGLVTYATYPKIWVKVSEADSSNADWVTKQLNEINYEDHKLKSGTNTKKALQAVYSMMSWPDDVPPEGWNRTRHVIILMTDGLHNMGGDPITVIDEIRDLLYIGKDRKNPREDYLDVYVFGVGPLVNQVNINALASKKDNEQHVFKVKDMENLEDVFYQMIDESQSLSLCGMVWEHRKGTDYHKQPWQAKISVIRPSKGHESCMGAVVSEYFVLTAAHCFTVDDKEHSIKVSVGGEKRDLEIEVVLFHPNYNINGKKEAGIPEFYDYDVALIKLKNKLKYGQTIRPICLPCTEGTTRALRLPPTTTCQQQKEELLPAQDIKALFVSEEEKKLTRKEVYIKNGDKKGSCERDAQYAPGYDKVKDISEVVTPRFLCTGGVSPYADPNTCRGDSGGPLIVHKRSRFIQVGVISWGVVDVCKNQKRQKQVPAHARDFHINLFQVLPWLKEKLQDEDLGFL
FB, sequence (Q91132 23-649 partner limits assumed): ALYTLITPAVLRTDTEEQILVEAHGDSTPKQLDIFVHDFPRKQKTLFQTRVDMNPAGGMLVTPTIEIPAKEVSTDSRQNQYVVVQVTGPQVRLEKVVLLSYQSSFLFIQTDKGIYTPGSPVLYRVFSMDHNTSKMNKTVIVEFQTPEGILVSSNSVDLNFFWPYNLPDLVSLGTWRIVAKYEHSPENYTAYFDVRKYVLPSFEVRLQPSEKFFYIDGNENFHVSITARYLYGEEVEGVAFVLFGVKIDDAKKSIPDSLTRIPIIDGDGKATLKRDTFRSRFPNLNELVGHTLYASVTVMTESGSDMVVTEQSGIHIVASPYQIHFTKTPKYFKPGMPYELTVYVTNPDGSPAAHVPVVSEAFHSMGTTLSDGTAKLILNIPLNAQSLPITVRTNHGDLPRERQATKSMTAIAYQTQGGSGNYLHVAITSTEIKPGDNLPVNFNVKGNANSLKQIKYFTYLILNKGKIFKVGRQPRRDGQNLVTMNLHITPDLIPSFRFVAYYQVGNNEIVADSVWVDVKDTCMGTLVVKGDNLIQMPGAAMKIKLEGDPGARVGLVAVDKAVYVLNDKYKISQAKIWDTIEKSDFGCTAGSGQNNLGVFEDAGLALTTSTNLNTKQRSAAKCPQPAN
FB, sequence (Q91132 733-984 partner limits assumed): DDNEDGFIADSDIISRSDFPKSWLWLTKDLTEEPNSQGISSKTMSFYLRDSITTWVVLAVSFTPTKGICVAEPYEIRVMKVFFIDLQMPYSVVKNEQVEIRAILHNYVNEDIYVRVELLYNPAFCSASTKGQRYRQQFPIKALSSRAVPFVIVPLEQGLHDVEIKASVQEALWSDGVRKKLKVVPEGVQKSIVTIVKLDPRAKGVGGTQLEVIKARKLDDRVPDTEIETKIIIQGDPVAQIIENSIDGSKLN
FB, sequence (Q91132 1264-1642 partner limits assumed): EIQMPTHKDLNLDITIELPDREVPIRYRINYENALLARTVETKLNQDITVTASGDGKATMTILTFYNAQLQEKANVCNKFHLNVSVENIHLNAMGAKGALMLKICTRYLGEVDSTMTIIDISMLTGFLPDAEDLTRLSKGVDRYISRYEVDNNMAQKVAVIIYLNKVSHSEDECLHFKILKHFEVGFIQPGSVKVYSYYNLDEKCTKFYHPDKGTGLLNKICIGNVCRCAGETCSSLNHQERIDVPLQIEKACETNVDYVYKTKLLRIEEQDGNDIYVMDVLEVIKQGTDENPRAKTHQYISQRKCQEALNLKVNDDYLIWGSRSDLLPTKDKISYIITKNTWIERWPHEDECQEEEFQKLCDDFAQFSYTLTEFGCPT
Method: CVF (1 μM), FB (1 μM) and FD (300 nM) were incubated in Assay buffer (pH=7.4, 10 mM MgCl2, 0.05% (m/v), CHAPS) for 3 h at room temperature, so that all FB was cleaved into Baby FD and CVF:Bb complex was generated. SDS-PAGE analysis confirmed that FB was completely hydrolyzed, that is, the concentration of the generated CVF:Bb complex was 300 nM. The CVF:Bb complex was diluted to a concentration of 5 nM using Assay buffer and preincubated with different concentrations of the compounds in assay buffer for 1 h at room temperature. C3 was added to a final concentration of 1 μM to start the enzymatic reaction. After reacting at room temperature for 1 h, protease inhibitor mixture (Roche Complete Inhibitor Tablets) was added to stop the enzyme reaction. Human C3a ELISA kit (Hycult HK354-01) was used to determine the generation of C3a according to the instruction in the kit. The FB activity inhibition rate was plotted against the inhibitor concentration, and graphpad nonlinear regression was used to calculate the IC50 value.

Caco2 permeability test = assay type: in vitro ADME; details: human, Caco-2 monolayer, 2 μM, 2 h, pH 7.4
Method: (§1) The experiment used a monolayer of Caco-2 cells incubated in triplicate in a 96-well Transwell plate. […] Acetonitrile containing internal standard was then added to precipitate the protein. […] The integrity of the cell monolayer after 2 h of incubation was assessed by leakage of Lucifer Yellow.

Caco-2 cells = assay: Caco2 permeability test; assay type: in vitro ADME; details: Caco2, compared with the trifluoroacetate of LNP023, in words
Method: as §1

[2] = Pharmacokinetic test of dogs; assay type: in vivo; details: male, beagle, dog, plasma, po, i.g. (5 mg/kg)
Method: (§2) Test objective: In this experiment, a single dose of test compounds was administered to beagle dogs intravenously and intragastrically, and the concentrations of the test compounds in plasma of the beagle dogs were measured to evaluate pharmacokinetic characteristics of the test compounds in the beagle dogs.
Experimental animals: Male beagle dogs, 8-11 kg, 1-3 years old, 6 dogs/compound. purchased from Beijing Marshall Biotechnology Co. Ltd.
Experimental method: on the day of the test, 6 beagle dogs were randomly grouped according to their body weights. The animals were fasted with water available for 14 to 18 hours one day before the administration of a test compound, and were fed 4 hours after the administration.
Sampling: Before and after the administration, 1.0 mL of blood was taken from the jugular veins or limb veins, and placed in an EDTAK2 centrifuge tube. Centrifugation was carried out at 5000 rpm at 4° C. for 10 min, and the plasma was collected.
(§3) Time points for plasma collection in IV&PO group: 0, 5 min, 15 min, 30 min, 1 h, 2 h, 4 h, 6 h, 8h, 10 h, 12h, and 24 h.
(§4) Before analysis and detection, all samples were stored at −60° C. The samples were analyzed quantitatively by LC-MS/MS.

[3] = Pharmacokinetic test in rats; assay type: in vivo, SD rats; details: for maximum plasma concentration in rats / oral bioavailability in rats / time to peak: compared with LNP023, in words; for bioavailability / Cmax / half-life / AUC(0-t) / Tmax: male, SD, rat, plasma, po, i.g. (10 mg/kg); for bioavailability / Cmax / half-life / AUC(0-t) / Tmax / time to peak: rats; for AUC(0-t): read-out: AUC0-24 h
Method: Test objective: In this experiment, a single dose of each test compound was administered to SD rats intravenously and intragastrically, and the concentrations of the test compounds in plasma of rats were measured to evaluate the pharmacokinetic characteristics of the test compounds in rats.
Experimental animals: male SD rats, 200-250 g, 6-8 weeks old, 6 rats/compound, purchased from Chengdu Ddossy Experimental Animals Co., Ltd.
Experimental method: on the day of the test, 6 SD rats were randomly grouped according to their body weight. The animals were fasted with water available for 12 to 14 hours one day before the administration of a test compound, and were fed 4 hours after the administration.
Sampling: Before and after the administration, 0.15 mL of blood sample was drawn from the orbit under isoflurane anesthesia, and placed in an EDTAK2 centrifuge tube. Centrifugation was carried out at 5000 rpm at 4° C. for 10 min, and the plasma was collected.
Time points for plasma collection in IV&PO group: 0, 5 min, 15 min, 30 min, 1 h, 2 h, 4 h, 6 h, 8 h, and 24 h.
as §4

[4] = Pharmacokinetic experiment in monkeys; assay type: in vivo, cynomolgus monkeys; details: for bioavailability in monkeys / oral exposure in monkeys: compared with the trifluoroacetate of LNP023, in words; for bioavailability / AUC(0-t): male, cynomolgus monkey, plasma, po, monkeys, i.g. (5 mg/kg)
Method: as §2, with “to cynomolgus monkeys” for “to beagle dogs”, “the monkeys” for “the beagle dogs”, “the monkeys.” for “the beagle dogs.”
Experimental animals: Male cynomolgus monkeys, 3-5 kg, 3-6 years old, 6 monkeys/compound. Purchased from Suzhou Xishan Biotechnology Inc.
Experimental method: on the day of the test, 6 monkeys were randomly grouped according to their body weights. The animals were fasted with water available for 14 to 18 hours one day before the administration of a test compound, and were fed 4 hours after the administration.
Sampling: before and after the administration, 1.0 mL of blood was taken from the limb veins, and placed in an EDTAK2 centrifuge tube. Centrifugation was carried out at 5000 rpm at 4° C. for 10 min, and the plasma was collected.
as §3, §4

COc1cc(C)c2[nH]ccc2c1CN1CCC(C2CCC2)C[C@H]1c1ccc(C(=O)O)cc1 (single isomer, unassigned) [Formate of [compound 8 (diastereomer 1)]]
IC50 [1]: < 200 nM

COc1cc(C)c2[nH]ccc2c1CN1CCN(C2CC2)CC1c1ccc(C(=O)O)cc1 (single isomer, unassigned) [Compound 27-1, 4-(4-cyclopropyl-1-((5-methoxy-7-methyl-1H-indol-4-yl)methyl)piperazin-2-yl)benzoic acid]
IC50 [1]: < 200 nM

COCC1CCN(Cc2c(OC)cc(C)c3[nH]ccc23)[C@H](c2ccc(C(=O)O)cc2)C1 (single isomer, unassigned) [Trifluoroacetate of compound 1-a]
IC50 (FB): < 500 nM | IC50 [1]: < 200 nM

COc1cc(C)c2[nH]ccc2c1CN1CCC2(CCCO2)C[C@H]1c1ccc(C(=O)O)cc1 (single isomer, unassigned) [Trifluoroacetate of compound 2-a (diastereomer 1)]
IC50 [1]: < 200 nM

COc1cc(C)c2[nH]ccc2c1CN1CC[C@H](C2CC2)C[C@H]1c1ccc(C(=O)O)cc1 [Trifluoroacetate of compound 5-1 (diastereomer 2), 4-((2S)-4-cyclopropyl-1-((5-methoxy-7-methyl-1H-indol-4-yl)methyl)piperidin-2-yl)benzoic acid]
IC50 [1]: < 200 nM

[2H]C([2H])([2H])Oc1cc(C)c2[nH]ccc2c1CN1CC[C@H](C2CC2)C[C@H]1c1ccc(C(=O)O)cc1 [Trifluoroacetate of compound 7 (diastereomer 1), 4-((2S)-4-cyclopropyl-1-((5-(methoxy-d3)-7-methyl-1H-indol-4-yl)methyl)piperidin-2-yl)benzoic acid]
Papp A→B at 2 h, 2 μM (Caco2 permeability test): 1.77 ×10⁻⁶ cm/s | Papp B→A at 2 h, 2 μM (Caco2 permeability test): 19.4 ×10⁻⁶ cm/s | permeability (Caco-2 cells): better | IC50 [1]: < 200 nM | bioavailability [2]: 75.5% | AUC(0-t) [2]: 45400 ng·h/mL | half-life [2]: 15.1 h | maximum plasma concentration in rats [3]: higher | oral bioavailability in rats [3]: higher | bioavailability [3]: 72.1% | Cmax [3]: 1130 ng/mL | half-life [3]: 3.2 h | AUC(0-t) [3]: 9160 ng·h/mL | bioavailability in monkeys [4]: higher | oral exposure in monkeys [4]: higher | bioavailability [4]: 98.3 ± 7.5% | AUC(0-t) [4]: 48300 ± 3660 ng·h/mL

COc1cc(C)c2[nH]ccc2c1CN1CCC(C2CCCC2)C[C@H]1c1ccc(C(=O)O)cc1 (single isomer, unassigned) [Ammonium of compound 11 (diastereomer 1)]
IC50 [1]: < 200 nM

C#CCC1CCN(Cc2c(OC)cc(C)c3[nH]ccc23)[C@H](c2ccc(C(=O)O)cc2)C1 (stereo partly drawn) [Compound 13, 4-((2S)-1-((5-methoxy-7-methyl-1H-indol-4-yl)methyl)-4-(prop-2-yn-1-yl)piperidin-2-yl)benzoic acid]
efflux ratio at 2 h, 2 μM (Caco2 permeability test): 8.18 | Papp A→B at 2 h, 2 μM (Caco2 permeability test): 2.55 ×10⁻⁶ cm/s | Papp B→A at 2 h, 2 μM (Caco2 permeability test): 20.9 ×10⁻⁶ cm/s | efflux ratio (Caco-2 cells): lower | permeability (Caco-2 cells): better | IC50 [1]: < 200 nM | bioavailability [2]: > 60% | AUC(0-t) [2]: 36100 ng·h/mL | half-life [2]: 7.26 h | maximum plasma concentration in rats [3]: higher | oral bioavailability in rats [3]: higher | bioavailability [3]: 65.5% | Cmax [3]: 1600 ng/mL | Tmax [3]: 0.583 h | half-life [3]: 3.41 h | AUC(0-t) [3]: 6030 ng·h/mL | time to peak [3]: shorter | bioavailability in monkeys [4]: higher | oral exposure in monkeys [4]: higher | bioavailability [4]: 70.5 ± 4.5% | AUC(0-t) [4]: 16600 ± 1070 ng·h/mL

COCCO[C@H]1CCN(Cc2c(OC)cc(C)c3[nH]ccc23)[C@H](c2ccc(C(=O)O)cc2)C1 [Trifluoroacetate of compound 3, 4-[(2S,4S)-1-[(5-methoxy-7-methyl-1H-indol-4-yl)methyl]-4-(2-methoxyethoxy)piperidin-2-yl]benzoic acid]
IC50 [1]: < 200 nM

COc1cc(C)c2[nH]ccc2c1CN1CCC(C2CC2)=C[C@H]1c1ccc(C(=O)O)cc1 [Ammonium salt of compound 12, (S)-4-(4-cyclopropyl-1-((5-methoxy-7-methyl-1H-indol-4-yl)methyl)-1,2,5,6-tetrahydropyridin-2-yl)benzoic acid]
IC50 [1]: < 200 nM

C#C[C@H]1CCN(Cc2c(OC)cc(C)c3[nH]ccc23)[C@H](c2ccc(C(=O)O)cc2)C1 [Compound 10 (diastereomer 1), 4-((2S)-4-ethynyl-1-((5-methoxy-7-methyl-1H-indol-4-yl)methyl)piperidin-2-yl)benzoic acid]
efflux ratio at 2 h, 2 μM (Caco2 permeability test): 4.62 | Papp A→B at 2 h, 2 μM (Caco2 permeability test): 2.62 ×10⁻⁶ cm/s | Papp B→A at 2 h, 2 μM (Caco2 permeability test): 12.1 ×10⁻⁶ cm/s | efflux ratio (Caco-2 cells): lower | permeability (Caco-2 cells): better | IC50 [1]: < 200 nM | bioavailability [2]: 56.2% | AUC(0-t) [2]: 25300 ng·h/mL | half-life [2]: 8.89 h | maximum plasma concentration in rats [3]: higher | oral bioavailability in rats [3]: higher | bioavailability [3]: 57.8% | Cmax [3]: 2240 ng/mL | Tmax [3]: 0.333 h | half-life [3]: 4.15 h | AUC(0-t) [3]: 7920 ng·h/mL | time to peak [3]: shorter

COc1cc(C)c2[nH]ccc2c1CN1CC[C@H](OCC2CC2)C[C@H]1c1ccc(C(=O)O)cc1 [Compound 4, 4-((2S,4S)-4-(cyclopropylmethoxy)-1-((5-methoxy-7-methyl-1H-indol-4-yl)methyl)piperidin-2-yl)benzoic acid]
IC50 (FB): < 500 nM | IC50 [1]: < 200 nM

[2H]C([2H])([2H])Oc1cc(C)c2[nH]ccc2c1CN1CCC2(CCCO2)C[C@H]1c1ccc(C(=O)O)cc1 (single isomer, unassigned) [Trifluoroacetate of compound 6]
IC50 (FB): < 500 nM | IC50 [1]: < 200 nM
